Assay [1] has as its system AvGluR1. The conditions noted are these: prior studies; ref Janovjak et al., 2011; cited from earlier work.
For assay [2], the target named is T1, AvGluR1 LBD (Adineta vaga, UniProt E9P5T5, INS567GT).
T1 sequence (E9P5T5 with tags, fused parts or gaps INS567GT): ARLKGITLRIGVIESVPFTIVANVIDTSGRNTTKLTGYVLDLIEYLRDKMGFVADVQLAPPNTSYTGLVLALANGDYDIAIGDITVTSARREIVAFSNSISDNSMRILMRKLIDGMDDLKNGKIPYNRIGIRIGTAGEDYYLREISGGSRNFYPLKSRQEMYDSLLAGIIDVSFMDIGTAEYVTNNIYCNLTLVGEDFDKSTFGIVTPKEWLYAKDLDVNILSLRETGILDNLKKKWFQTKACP
Kind of assay: biochemical. It counts as binding. The note with it: for binding affinity: β-carbon branched amino acids.

Assay [3] concerns AvGluR1. It counts as cell-based, Adineta vaga. The note with it: for time constant of onset of desensitization (Figure 2A traces): 2.8 mM alanine; for amplitude of response relative to glutamate: normalized to 60 μM glutamate in the same oocyte.
In assay [4] the target is T1, AvGluR1 LBD. As to the kind of experiment: Competitive displacement of 100 nM [3H] L-glutamate by 100 μM amino acids. It counts as binding. The conditions noted are these: 100 μM competing amino acid.
In assay [5] the target is T1, AvGluR1 LBD. As to the kind of experiment: Competitive displacement of [3H] L-glutamate with NaCl substituted by HEPES. It counts as binding.
For assay [6], the target named is T1, AvGluR1 LBD. As to the kind of experiment: Saturation binding of [3H] L-glutamate to AvGluR1 LBD apo protein.
In assay [7] the target is GluR0 from Synechocystis. The note with it: read-out: Kd for glutamate, ref Chen et al., 1999; cited from earlier work.
Where [8] appears, read: displacement of 100 nM [3H] L-Glu, NaCl buffer.
Where [9] appears, read: Kd, displacement of 100 nM [3H] L-Glu, NaCl buffer.
Setting [10] is: ligand applied at 300 times the Kd.
[11] abbreviates: Kd in Cl−, competitive displacement of [3H] L-glutamate, NaCl reaction buffer.

“And” between values parts separate entries of the source, which are not always exact repeats. Identical values can stand only once.

A word on the Kd: it is the constant that tells how readily two partners part at equilibrium.

Regarding `Cc1o[nH]c(=O)c1CC(N)C(=O)O` (stereo not shown) [AMPA], the “activation of AvGluR1 (ligand activated ion currents)” value (shortened to “activation of AvGluR1”) in assay [1] was “activation”. This compound also showed a Kd in assay [2] (setting [8]) of 130 µM.
Consider `NC(CCCP(=O)(O)O)C(=O)O` (stereo not shown) [AP5], for which binding in assay [2] (setting [8]) was put at a Kd of 530 µM.
For `N[C@H](CCC(=O)O)C(=O)O` [D-Glu], binding in assay [2] (setting [8]) was characterised by a dissociation constant (Kd) of 130 µM.
In the case of `O=[N+]([O-])c1cc2nc(O)c(O)nc2cc1[N+](=O)[O-]` [DNQX], the Kd in assay [2] (setting [8]) stood at 250 µM.
`CN[C@H](CC(=O)O)C(=O)O` [NMDA] came in with a dissociation constant (Kd) in assay [2] (setting [8]) of 9900 µM.
Turning to `C[C@H](C[C@H](N)C(=O)O)C(=O)O` [SYM2081, 2S,4R-4-methyl glutamate], the “fold lower affinity for AvGluR1” value in assay [2] (comparator not given) is reported as 250 fold. The affinity in assay [2] (setting [8]), expressed as Kd, was 49.5 µM.
`Cc1cn(C[C@H](N)C(=O)O)c(=O)n(Cc2ccsc2C(=O)O)c1=O` [UBP-310] showed a dissociation constant (Kd) in assay [2] (setting [8]) of 160 µM.
In the case of `C[C@H](N)C(=O)O` [alanine], the “time constant of onset of desensitization (Figure 2A traces)” value in assay [3] (60 μM glutamate) is on record as 1.0 s.
Take `NC(=O)C[C@H](N)C(=O)O` [asparagine]: in assay [2] (setting [9]), binding was characterised by a dissociation constant (Kd) of 81 µM.
As for `N[C@@H](CC(=O)O)C(=O)O` [aspartate], the “activation of AvGluR1” value in assay [1] is reported as “activation”. Moreover, the “effect on binding of 100 nM [3H] L-glutamate” value in assay [4] was “abolished”.
Take `N[C@@H](CS)C(=O)O` [cysteine]: in assay [3] (setting [10]), the “amplitude of response relative to glutamate” value is recorded as 86 ± 8%. For the same compound, binding in assay [2] (setting [9]) was put at a Kd of 46 µM.
In the case of `N[C@@H](CCC(=O)O)C(=O)O` [glutamate, L-glutamate], in assay [1], the “activation of AvGluR1” value is “activation”. The 10-90% rise time in assay [3] (60 μM glutamate) was determined as 240 ± 67 ms. Further, the “time constant of desensitization (single exponential)” value in assay [3] (60 μM glutamate) was determined as 626 ± 255 ms. In addition, in assay [3] (60 μM glutamate), the “time constant of onset of desensitization (Figure 2A traces)” value is listed as 1.25 s. In assay [3] (60 μM glutamate, mean ± SD, n = 9), this compound displayed an inward current amplitude of 5.1 ± 1.4 μA. Further, in assay [3] (60 μM glutamate, twin pulse protocol), the “time constant of recovery from desensitization” value is 26 s and 25.7 s. Further, the “time constant of onset of desensitization” value in assay [3] (100 μM glutamate, wild type AvGluR1 control response (Figure 7D)) was found to be 460 ms. The “extent of desensitization” value in assay [3] (setting [10]) is recorded as “complete desensitization”. Moreover, the Kd in assay [5] was 0.3 ± 0.04 µM; in assay [6], 203 ± 18 nM; in assay [2] (setting [11]) it was 0.27 ± 0.02 µM; in assay [2] (Kd, sequence of Kd values, Figure 1C and Table S1), 0.203 µM; in assay [7], 193 nM. For the same compound, the “effect on binding of 100 nM [3H] L-glutamate” value in assay [4] is given as “abolished”.
For the compound `NC(=O)CC[C@H](N)C(=O)O` [glutamine], in assay [2] (setting [9]), the Kd turned out to be 37 µM.
For `CC[C@H](C)[C@H](N)C(=O)O` [isoleucine], the “binding affinity” value in assay [2] is given as “low affinity”.
As for `C=C(C)[C@H]1CN[C@H](C(=O)O)[C@H]1CC(=O)O` [kainate], in assay [1], the “activation of AvGluR1” value is “activation”. For the same compound, in assay [2] (setting [8]), the Kd was 2700 µM.
For `CSCC[C@H](N)C(=O)O` [methionine], the “amplitude of response relative to glutamate” value in assay [3] (setting [10]) is 64 ± 7%. The Kd in assay [5] was 270 ± 52 µM; in assay [2] (setting [11]), 15.1 ± 2.5 µM; in assay [2] (setting [9]), 15 µM.
Regarding `N[C@@H](Cc1ccccc1)C(=O)O` [phenylalanine], the “amplitude of response relative to glutamate” value in assay [3] (setting [10]) was 33 ± 6%.
`N[C@@H](Cn1oc(=O)[nH]c1=O)C(=O)O` [quisqualate] gave an equilibrium dissociation constant (Kd) in assay [2] (setting [9]) of 39 µM.
On to `N[C@@H](CO)C(=O)O` [serine], for which the “activation of AvGluR1” value in assay [1] is recorded as “activation”.
`C[C@@H](O)[C@H](N)C(=O)O` [threonine]: the “binding affinity” value in assay [2] is listed as “low affinity”.
Still for that read-out and setting: next, `CC(C)[C@H](N)C(=O)O` [valine]: “low affinity”.
Regarding concanavalin A, the “effect on AvGluR1 desensitization” value in assay [3] (0.5 mg/ml for 4 minutes) was “strongly attenuated”.

The record behind these values is publication PMC4096996 (Structure (London, England : 1993), 2013).
